{
  "source": "patent US12419877B2",
  "about": "“Solid forms of {[5-(3-chlorophenyl)-3-hydroxypyridine-2-carbonyl]amino}acetic acid, compositions, and uses thereof” (Akebia Therapeutics, Inc., priority 2013, dated 2025)",
  "test": "Solubility experiments (approximate solubility by solvent aliquot addition)",
  "format": "physicochemical",
  "conditions": "thermodynamic from solid",
  "procedure": "Approximately 20 mg of Form A of Compound (1) was placed in each of 48 vials and 5 volume aliquots of the appropriate solvent systems were added to the appropriate vial. Between each addition, the mixture was checked for dissolution and if no dissolution was apparent, the mixture was warmed to ca. 50° C. and checked again. This procedure was continued until dissolution was observed or until 100 volumes of solvent had been added.",
  "note": "Where two headings read alike, the source gives them in different places.",
  "data": [
    {"smiles": "O=C(O)CNC(=O)c1ncc(-c2cccc(Cl)c2)cc1O", "note": "[Form A of Compound (I), {[5-(3-chlorophenyl)-3-hydroxypyridine-2-carbonyl]amino}acetic acid]", "values": [
      {"measurement": "solubility", "setting": "organic solvent or mixture, Solvent: Diethyl ether, RT (ca. 22° C.), read-out: Solubility (mg/mL) RT (ca. 22° C.)", "value": "< 10", "unit": "mg/mL"},
      {"measurement": "solubility", "setting": "organic solvent or mixture, Solvent: Diethyl ether, ca. 50° C., read-out: Solubility (mg/mL) (ca. 50° C.)", "value": 10, "unit": "mg/mL"},
      {"measurement": "solubility", "setting": "organic solvent or mixture, Solvent: Diisopropyl ether (DIPE), RT (ca. 22° C.), read-out: Solubility (mg/mL) RT (ca. 22° C.)", "value": "< 10", "unit": "mg/mL"},
      {"measurement": "solubility", "setting": "organic solvent or mixture, Solvent: Diisopropyl ether (DIPE), ca. 50° C., read-out: Solubility (mg/mL) (ca. 50° C.)", "value": "< 10", "unit": "mg/mL"},
      {"measurement": "solubility", "setting": "organic solvent or mixture, Solvent: Dimethyl sulfoxide (DMSO), RT (ca. 22° C.), read-out: Solubility (mg/mL) RT (ca. 22° C.)", "value": "> 200", "unit": "mg/mL"},
      {"measurement": "solubility", "setting": "organic solvent or mixture, Solvent: Dimethyl sulfoxide (DMSO), ca. 50° C., read-out: Solubility (mg/mL) (ca. 50° C.)", "value": "> 200", "unit": "mg/mL"},
      {"measurement": "solubility", "setting": "organic solvent or mixture, Solvent: Dimethylacetamide (DMA), RT (ca. 22° C.), read-out: Solubility (mg/mL) RT (ca. 22° C.)", "value": "> 200", "unit": "mg/mL"},
      {"measurement": "solubility", "setting": "organic solvent or mixture, Solvent: Dimethylacetamide (DMA), ca. 50° C., read-out: Solubility (mg/mL) (ca. 50° C.)", "value": "> 200", "unit": "mg/mL"},
      {"measurement": "solubility", "setting": "organic solvent or mixture, Solvent: Dimethylformamide (DMF), RT (ca. 22° C.), read-out: Solubility (mg/mL) RT (ca. 22° C.)", "value": "> 200", "unit": "mg/mL"},
      {"measurement": "solubility", "setting": "organic solvent or mixture, Solvent: Dimethylformamide (DMF), ca. 50° C., read-out: Solubility (mg/mL) (ca. 50° C.)", "value": "> 200", "unit": "mg/mL"},
      {"measurement": "solubility", "setting": "organic solvent or mixture, Solvent: EtOAc/Cyclohexane (1:2), ca. 50° C., read-out: Solubility (mg/mL) (ca. 50° C.)", "value": "< 10", "unit": "mg/mL"},
      {"measurement": "solubility", "setting": "organic solvent or mixture, Solvent: EtOAc/Toluene (1:2), RT (ca. 22° C.), read-out: Solubility (mg/mL) RT (ca. 22° C.)", "value": "< 14", "unit": "mg/mL"},
      {"measurement": "solubility", "setting": "organic solvent or mixture, Solvent: EtOAc/Toluene (1:2), ca. 50° C., read-out: Solubility (mg/mL) (ca. 50° C.)", "value": 14, "unit": "mg/mL"},
      {"measurement": "solubility", "setting": "organic solvent or mixture, Solvent: Ethanol (EtOH), RT (ca. 22° C.), read-out: Solubility (mg/mL) RT (ca. 22° C.)", "value": 34, "unit": "mg/mL"},
      {"measurement": "solubility", "setting": "organic solvent or mixture, Solvent: Ethanol (EtOH), ca. 50° C., read-out: Solubility (mg/mL) (ca. 50° C.)", "value": "> 34", "unit": "mg/mL"},
      {"measurement": "solubility", "setting": "organic solvent or mixture, Solvent: Ethyl acetate (EtOAc), RT (ca. 22° C.), read-out: Solubility (mg/mL) RT (ca. 22° C.)", "value": "< 41", "unit": "mg/mL"},
      {"measurement": "solubility", "setting": "organic solvent or mixture, Solvent: Ethyl acetate (EtOAc), ca. 50° C., read-out: Solubility (mg/mL) (ca. 50° C.)", "value": 41, "unit": "mg/mL"},
      {"measurement": "solubility", "setting": "organic solvent or mixture, Solvent: Ethylene glycol, RT (ca. 22° C.), read-out: Solubility (mg/mL) RT (ca. 22° C.)", "value": "< 10", "unit": "mg/mL"},
      {"measurement": "solubility", "setting": "organic solvent or mixture, Solvent: Ethylene glycol, ca. 50° C., read-out: Solubility (mg/mL) (ca. 50° C.)", "value": "< 10", "unit": "mg/mL"},
      {"measurement": "solubility", "setting": "organic solvent or mixture, Solvent: Heptane, RT (ca. 22° C.), read-out: Solubility (mg/mL) RT (ca. 22° C.)", "value": "< 10", "unit": "mg/mL"},
      {"measurement": "solubility", "setting": "organic solvent or mixture, Solvent: Heptane, ca. 50° C., read-out: Solubility (mg/mL) (ca. 50° C.)", "value": "< 10", "unit": "mg/mL"},
      {"measurement": "solubility", "setting": "organic solvent or mixture, Solvent: Isobutyl acetate (iBuOAc), RT (ca. 22° C.), read-out: Solubility (mg/mL) RT (ca. 22° C.)", "value": "< 20", "unit": "mg/mL"},
      {"measurement": "solubility", "setting": "organic solvent or mixture, Solvent: Isobutyl acetate (iBuOAc), ca. 50° C., read-out: Solubility (mg/mL) (ca. 50° C.)", "value": 20, "unit": "mg/mL"},
      {"measurement": "solubility", "setting": "organic solvent or mixture, Solvent: Isopropyl acetate (iPrOAc), RT (ca. 22° C.), read-out: Solubility (mg/mL) RT (ca. 22° C.)", "value": "< 26", "unit": "mg/mL"},
      {"measurement": "solubility", "setting": "organic solvent or mixture, Solvent: Isopropyl acetate (iPrOAc), ca. 50° C., read-out: Solubility (mg/mL) (ca. 50° C.)", "value": 26, "unit": "mg/mL"},
      {"measurement": "solubility", "setting": "organic solvent or mixture, Solvent: MeOH/Water (1%), RT (ca. 22° C.), read-out: Solubility (mg/mL) RT (ca. 22° C.)", "value": "< 40", "unit": "mg/mL"},
      {"measurement": "solubility", "setting": "organic solvent or mixture, Solvent: MeOH/Water (1%), ca. 50° C., read-out: Solubility (mg/mL) (ca. 50° C.)", "value": 40, "unit": "mg/mL"},
      {"measurement": "solubility", "setting": "organic solvent or mixture, Solvent: MeOH/Water (20%), RT (ca. 22° C.), read-out: Solubility (mg/mL) RT (ca. 22° C.)", "value": "< 10", "unit": "mg/mL"},
      {"measurement": "solubility", "setting": "organic solvent or mixture, Solvent: Methanol (MeOH), RT (ca. 22° C.), read-out: Solubility (mg/mL) RT (ca. 22° C.)", "value": "< 51", "unit": "mg/mL"},
      {"measurement": "solubility", "setting": "organic solvent or mixture, Solvent: Methanol (MeOH), ca. 50° C., read-out: Solubility (mg/mL) (ca. 50° C.)", "value": 51, "unit": "mg/mL"},
      {"measurement": "solubility", "setting": "organic solvent or mixture, Solvent: Methyl acetate (MeOAc), RT (ca. 22° C.), read-out: Solubility (mg/mL) RT (ca. 22° C.)", "value": "< 68", "unit": "mg/mL"},
      {"measurement": "solubility", "setting": "organic solvent or mixture, Solvent: Methyl acetate (MeOAc), ca. 50° C., read-out: Solubility (mg/mL) (ca. 50° C.)", "value": 68, "unit": "mg/mL"},
      {"measurement": "solubility", "setting": "organic solvent or mixture, Solvent: Methyl ethyl ketone (MEK), RT (ca. 22° C.), read-out: Solubility (mg/mL) RT (ca. 22° C.)", "value": "< 100", "unit": "mg/mL"},
      {"measurement": "solubility", "setting": "organic solvent or mixture, Solvent: Methyl ethyl ketone (MEK), ca. 50° C., read-out: Solubility (mg/mL) (ca. 50° C.)", "value": 100, "unit": "mg/mL"},
      {"measurement": "solubility", "setting": "organic solvent or mixture, Solvent: Methyl isobutyl ketone (MIBK), RT (ca. 22° C.), read-out: Solubility (mg/mL) RT (ca. 22° C.)", "value": "< 34", "unit": "mg/mL"},
      {"measurement": "solubility", "setting": "organic solvent or mixture, Solvent: Methyl isobutyl ketone (MIBK), ca. 50° C., read-out: Solubility (mg/mL) (ca. 50° C.)", "value": 34, "unit": "mg/mL"},
      {"measurement": "solubility", "setting": "organic solvent or mixture, Solvent: N-methyl-2-pyrrolidone (NMP), RT (ca. 22° C.), read-out: Solubility (mg/mL) RT (ca. 22° C.)", "value": "> 200", "unit": "mg/mL"},
      {"measurement": "solubility", "setting": "organic solvent or mixture, Solvent: N-methyl-2-pyrrolidone (NMP), ca. 50° C., read-out: Solubility (mg/mL) (ca. 50° C.)", "value": "> 200", "unit": "mg/mL"},
      {"measurement": "solubility", "setting": "organic solvent or mixture, Solvent: Nitromethane, RT (ca. 22° C.), read-out: Solubility (mg/mL) RT (ca. 22° C.)", "value": "< 10", "unit": "mg/mL"},
      {"measurement": "solubility", "setting": "organic solvent or mixture, Solvent: Nitromethane, ca. 50° C., read-out: Solubility (mg/mL) (ca. 50° C.)", "value": "< 10", "unit": "mg/mL"},
      {"measurement": "solubility", "setting": "organic solvent or mixture, Solvent: Tetrahydrofuran (THF), RT (ca. 22° C.), read-out: Solubility (mg/mL) RT (ca. 22° C.)", "value": "> 200", "unit": "mg/mL"},
      {"measurement": "solubility", "setting": "organic solvent or mixture, Solvent: Tetrahydrofuran (THF), ca. 50° C., read-out: Solubility (mg/mL) (ca. 50° C.)", "value": "> 200", "unit": "mg/mL"},
      {"measurement": "solubility", "setting": "organic solvent or mixture, Solvent: Toluene, RT (ca. 22° C.), read-out: Solubility (mg/mL) RT (ca. 22° C.)", "value": "< 10", "unit": "mg/mL"},
      {"measurement": "solubility", "setting": "organic solvent or mixture, Solvent: Toluene, ca. 50° C., read-out: Solubility (mg/mL) (ca. 50° C.)", "value": "< 10", "unit": "mg/mL"},
      {"measurement": "solubility", "setting": "organic solvent or mixture, Solvent: Trifluoroethanol (TFE), RT (ca. 22° C.), read-out: Solubility (mg/mL) RT (ca. 22° C.)", "value": "< 10", "unit": "mg/mL"},
      {"measurement": "solubility", "setting": "organic solvent or mixture, Solvent: Trifluoroethanol (TFE), ca. 50° C., read-out: Solubility (mg/mL) (ca. 50° C.)", "value": "< 10", "unit": "mg/mL"},
      {"measurement": "solubility", "setting": "organic solvent or mixture, Solvent: methyl tert-butyl ether (MTBE), RT (ca. 22° C.), read-out: Solubility (mg/mL) RT (ca. 22° C.)", "value": 14, "unit": "mg/mL"},
      {"measurement": "solubility", "setting": "organic solvent or mixture, Solvent: methyl tert-butyl ether (MTBE), ca. 50° C., read-out: Solubility (mg/mL) (ca. 50° C.)", "value": "> 14", "unit": "mg/mL"},
      {"measurement": "solubility", "setting": "Solvent: Water, RT (ca. 22° C.), read-out: Solubility (mg/mL) RT (ca. 22° C.)", "value": "< 10", "unit": "mg/mL"},
      {"measurement": "solubility", "setting": "Solvent: Water, ca. 50° C., read-out: Solubility (mg/mL) (ca. 50° C.)", "value": "< 10", "unit": "mg/mL"}
    ]}
  ]
}
